We go through 18 compounds from patent US9549917B2, “Heterocyclic-substituted benzofuran derivatives and methods of use thereof for the treatment of viral diseases” (priority 2011, dated 2017).

Experiment [1] relates to HCV replicon genotype 1b. Description: HCV replicon assay, genotype 1b (cell ELISA for NS3/4A). Format: cell-based. Conditions: Hepatitis C virus, 96 h, read-out: 1b IC50 (nM). As to the method: (§1) Measurement of inhibition by compounds was performed using the HCV replicon system. Several different replicons encoding different HCV genotypes or mutations were used. In addition, potency measurements were made using different formats of the replicon assay, including different ways of measurements and different plating formats. See Jan M. Vrolijk et al., A replicons-based bioassay for the measurement of interferons in patients with chronic hepatitis C, 110 J. V[…] 201 (2003); Steven S. Carroll et al., Inhibition of Hepatitis C Virus RNA Replication by 2′-Modified Nucleoside Analogs, 278(14) J. BIOLOGICAL CHEMISTRY 11979 (2003). However, the underlying principles are common to all of these determinations, and are outlined below.
(§2) Stable neomycin phosphotransferase encoding replicons-harboring cell lines were used, so all cell lines were maintained under G418 selection prior to the assay. Potency was determined using a cell ELISA assay with an antibody to the replicons encoded NS3/4a protease. See Caterina Trozzi et al., In Vitro Selection and Characterization of Hepatitis C Virus Serine Protease Variants Resistant to an Active-Site Peptide Inhibitor, 77(6) J. Virol. 3669 (2003). To initiate an assay, replicon cells were plated in the presence of a dilution series of test compound in the absence of G418. Typically, the assays were performed in a 96-well plate formate for manual operation, or a 384-well plate format for automated assay. Replicon cells and compound were incubated for 96 hours. At the end of the assay, cells were washed free of media and compound, and the cells were then lysed. RNA was quantified indirectly through detection of replicon-encoded NS3/4A protein levels, through an ELISA-based assay with an antibody specific for NS3/4A. IC50 determinations were calculated as a percentage of a DMSO control by fitting the data to a four-parameter fit function and the data obtained is provided in the table below.
(§3) Data for selected compounds of the present invention was obtained for genotypes 1a and 1b using this method and is provided in the table below: […]
(In general: In antiviral work, replicon cells carry a viral genome segment that copies itself.)

For experiment [2], the system named is HCV replicon genotype 1a. Description: HCV replicon assay, genotype 1a (cell ELISA for NS3/4A). The format is cell-based. Conditions: Hepatitis C virus, 96 h, read-out: 1a IC50 (nM). As for the experimental part:
as §1, §2, §3

As to `CNC(=O)c1c(-c2ccc(F)cc2)oc2cc(N(C)S(C)(=O)=O)c(-c3cc(-c4cc5c(F)cccc5[nH]4)nc(N)n3)cc12` [Compound 272], the IC50 (usually the midpoint of a concentration-inhibition curve) in experiment [1] turned out to be 4.4 nM; in experiment [2] it was 4.2 nM.
With `CNC(=O)c1c(-c2ccc(F)cc2)oc2cc(N(C)S(C)(=O)=O)c(-c3cnnc(-c4cc5c(C#N)cccc5n4C)c3)cc12` [Compound 273], the results for the IC50 in experiment [1] and in experiment [2] were 0.2 nM and 0.3 nM, respectively.
For the compound `CNC(=O)c1c(-c2ccc(F)cc2)oc2cc(N(C)S(C)(=O)=O)c(-c3cnnc(-c4cc5c(F)cccc5n4CCO)c3)cc12` [Compound 277], the IC50 in experiment [1] was determined as 6.7 nM; in experiment [2], 7.4 nM.
Regarding `CNC(=O)c1c(-c2ccc(F)cc2)oc2cc(N(C)S(C)(=O)=O)c(-c3cc(-c4cc5c(F)cccc5n4CCOC)cnn3)cc12` [Compound 278], the results for the IC50 in experiment [1] and in experiment [2] were 14 nM and 37 nM, respectively.
Consider `CNC(=O)c1c(-c2ccc(F)cc2)oc2cc(N(C)S(C)(=O)=O)c(-c3cnnc(-c4cc5c(F)cccc5n4CCOC)c3)cc12` [Compound 279], for which the values for the IC50 in experiment [1] and in experiment [2] were 3.2 nM and 2.5 nM, respectively.
Consider `CNC(=O)c1c(-c2ccc(F)cc2)oc2cc(N(C)S(C)(=O)=O)c(-c3cnnc(N4Cc5cccc(F)c5C4)c3)cc12` [Compound 280], for which the IC50 in experiment [1] was 1.4 nM; in experiment [2], 1.2 nM.
Consider `CNC(=O)c1c(-c2ccc(F)cc2)oc2cc(N(C)S(C)(=O)=O)c(-c3cnnc(N4Cc5c(F)cccc5C4=O)c3)cc12` [Compound 281], for which the concentration for half-maximal inhibition (IC50) in experiment [1] was 4.8 nM; in experiment [2], 22.3 nM.
Turning to `CNC(=O)c1c(-c2ccc(F)cc2)oc2cc(N(C)S(C)(=O)=O)c(-c3cnnc(-c4cc5c(OC)cccc5[nH]4)c3)cc12` [Compound 282], the IC50 in experiment [1] worked out at 1.8 nM; in experiment [2], 3.3 nM.
Taken in the same sequence, the figures for `CNC(=O)c1c(-c2ccc(F)cc2)oc2cc(N(C)S(C)(=O)=O)c(-c3cnnc(-c4cc5cccnc5n4C)c3)cc12` [Compound 284] were 2.7 nM and 6 nM.
Turning to `CNC(=O)c1c(-c2ccc(F)cc2)oc2cc(N(C)S(C)(=O)=O)c(-c3cnnc(-c4cc5ncccc5[nH]4)c3)cc12` [Compound 286], the results for the IC50 in experiment [1] and in experiment [2] were 5 nM and 17 nM, respectively.
As for `CNC(=O)c1c(-c2ccc(F)cc2)oc2cc(N(C)S(C)(=O)=O)c(-c3cnnc(-c4nc5ccccc5s4)c3)cc12` [Compound 287], the IC50 stood at 5.1 nM in experiment [1] and 3.2 nM in experiment [2].
`CNC(=O)c1c(-c2ccc(F)cc2)oc2cc(N(C)S(C)(=O)=O)c(-c3cnnc(-c4[nH]c5ccccc5c4C)c3)cc12` [Compound 288]: the IC50 worked out at 25 nM in experiment [1] and 75 nM in experiment [2].
As for `CNC(=O)c1c(-c2ccc(F)cc2)oc2cc(N(C)S(C)(=O)=O)c(-c3cc(-c4[nH]c5ccccc5c4C)cnn3)cc12` [Compound 289], the IC50 worked out at 22 nM in experiment [1] and 54 nM in experiment [2].
As to `CNC(=O)c1c(-c2ccc(F)cc2)oc2cc(N(C)S(C)(=O)=O)c(-c3cc(-c4cc5c(F)cccc5[nH]4)ncc3-c3cc4c(F)cccc4[nH]3)cc12` [Compound 290], the IC50 in experiment [1] turned out to be 10 nM; in experiment [2], 9.8 nM.
As for `CNC(=O)c1c(-c2ccc(F)cc2)oc2cc(N(C)S(C)(=O)=O)c(-c3cc(N4Cc5cccc(F)c5C4)ncc3Cl)cc12` [Compound 291], the IC50 was 8 nM in experiment [1] and 4.8 nM in experiment [2].
`CNC(=O)c1c(-c2ccc(F)cc2)oc2cc(N(C)S(C)(=O)=O)c(-c3cc(-c4cc5c(F)cccc5[nH]4)ncc3Cl)cc12` [Compound 292]: the values for the IC50 in experiment [1] and in experiment [2] were 13 nM and 12 nM, respectively.
For `CNC(=O)c1c(-c2ccc(F)cc2)oc2cc(N(C)S(C)(=O)=O)c(-c3cc(-c4cc5c(F)cccc5[nH]4)ncc3OC)cc12` [Compound 293], the IC50 in experiment [1] is 41 nM; in experiment [2], 131 nM.
With `CNC(=O)c1c(-c2ccc(F)cc2)oc2cc(N(C)S(C)(=O)=O)c(-c3cc(N4Cc5cccc(F)c5C4)ncc3OC)cc12` [Compound 294], the IC50 in experiment [1] came out at 22 nM; in experiment [2] it was 54 nM.
